Data reported in ChEMBL document CHEMBL1133110, “bis-Quinolinium cyclophanes: 8,14-diaza-1,7(1, 4)-diquinolinacyclotetradecaphane (UCL 1848), a highly potent and selective, nonpeptidic blocker of the apamin-sensitive Ca(2+)-activated K(+) channel” (J Med Chem, 2000).

How the values were obtained:
[1] = Equieffective molar ratio is ratio of the concentration of the test compound and dequalinium that cause 50% inhibition of AHP
Rattus norvegicus [2] = species on record: Rattus norvegicus; test: tested for their ability to inhibit the after- hyperpolarization in cultured rat sympathetic neurons; format: functional, Sympathetic neuron
Rattus norvegicus [3] = species on record: Rattus norvegicus; test: tested for their ability to inhibit the after- hyperpolarization (AHP) in cultured rat sympathetic neurons; format: functional; details: Sympathetic neuron
Rattus norvegicus [4] = species on record: Rattus norvegicus; test: tested for their ability to inhibit the after- hyperpolarization in cultured rat sympathetic neurons (omitting the comparison with dequalinium); format: functional; details: Sympathetic neuron
[5] = Rattus norvegicus, Sympathetic neuron

[I-].[I-].c1ccc2c(c1)c1cc[n+]2CCC[n+]2ccc(c3ccccc32)NCCCN1 (stereo in doubt; form 2)
EMR [1]: 0.77 | IC50 (Rattus norvegicus [2]; sympathetic neuron): 380 nM

[I-].[I-].c1ccc2c(c1)c1cc[n+]2CCCCCCCC[n+]2ccc(c3ccccc32)NCCCCCCCCN1
EMR [1]: 0.43 | IC50 (Rattus norvegicus [2]; [5]): 190 nM

c1cc2cc(c1)C[n+]1ccc(c3ccccc31)NCc1ccc(cc1)CNc1cc[n+](c3ccccc13)C2
EMR [1]: 0.01

[I-].[I-].c1ccc2c(c1)c1cc[n+]2CCCCCCCCCC[n+]2ccc(c3ccccc32)NCCCCCCCCCCN1
EMR [1]: 0.44 | IC50 (Rattus norvegicus [2]; [5]): 260 nM

Cc1cc(N)c2ccccc2[n+]1CCCCCCCCCC[n+]1c(C)cc(N)c2ccccc21.[Cl-].[Cl-] [DEQUALINIUM CHLORIDE]
IC50 (Rattus norvegicus [3]): 490 nM | EMR [1]: 1

[I-].[I-].c1ccc2c(c1)c1cc[n+]2CCC[n+]2ccc(c3ccccc32)NCCCN1 (stereo in doubt; form 1)
EMR [1]: 0.27 | IC50 (Rattus norvegicus [2]; sympathetic neuron): 130 nM

[I-].[I-].c1ccc2c(c1)c1cc[n+]2CCCCC[n+]2ccc(c3ccccc32)NCCCCCN1
EMR [1]: 0.003 | IC50 (Rattus norvegicus [2]; [5]): 2 nM | IC50 (Rattus norvegicus [4]): 2.7 nM

[I-].[I-].c1ccc2c(c1)c1cc[n+]2CCCCCC[n+]2ccc(c3ccccc32)NCCCCCCN1
EMR [1]: 0.1 | IC50 (Rattus norvegicus [2]; [5]): 60 nM

[I-].[I-].c1ccc2c(c1)c1cc[n+]2CCCC[n+]2ccc(c3ccccc32)NCCCCN1
EMR [1]: 0.09 | IC50 (Rattus norvegicus [2]; [5]): 40 nM
